According to patent US20250215039A1, “NUCLEOSIDES FOR TREATING CANCER” (PRIMEFOUR THERAPEUTICS, INC., priority 2022, published 2025):
Like-named read-outs stand apart in the source and are kept apart here.

Test system: cancer cell lines
Assay: Cancer cell proliferation activity (CellTiterGlo, 72 h)
Assay type: cell-based
Conditions: 72 h, 72 h, read-out: IC50 cell proliferation
How it was run: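 Readout is CellTiterGlo luminescence after 72 h compound exposure (0.1% DMSO final), started one day post-seeding, at 37 °C.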

C[C@]1(CO)O[C@@H](n2cnc3c(N)nc(F)nc32)[C@H](O)[C@@H]1O [Cpd. No. 178, (2R,3S,4R,5R)-5-(6-amino-2-fluoro-9H-purin-9-yl)-2-(hydroxymethyl)-2-methyltetrahydrofuran-3,4-diol]
IC50 (5637 (bladder)): 160 nM
IC50 (CLS439 (bladder)): 770 nM
IC50 (HS729 (muscle)): 120 nM
IC50 (J82 (bladder)): 80 nM
IC50 (JAR (placenta)): 30 nM
IC50 (MT3 (breast)): 40 nM
IC50 (PANCI (pancreas)): 14900 nM
IC50 (PC3 (prostate)): 70 nM
IC50 (RD (muscle)): 70 nM
IC50 (T24 (bladder)): 90 nM
IC50 (Homo sapiens, 22Rv1, 72 h, 22RV1 (prostate)): 250 nM
IC50 (Homo sapiens, 786-0, 72 h, 786O (kidney)): 70 nM
IC50 (Homo sapiens, A204, 72 h, A204 (muscle)): 30 nM
IC50 (Homo sapiens, A549, 72 h, A549 (lung)): 370 nM
IC50 (Homo sapiens, A673, 72 h, A673 (bone)): 360 nM
IC50 (Homo sapiens, A2780, 72 h, A2780 (ovary)): 150 nM
IC50 (Homo sapiens, A-375, 72 h, A375 (skin)): 40 nM
IC50 (Homo sapiens, A-431, 72 h, A431 (skin)): 50 nM
IC50 (Homo sapiens, ACHN, ACHN (kidney)): 460 nM
IC50 (Homo sapiens, ASPC1, 72 h, ASPC1 (pancreas)): 30 nM
IC50 (Homo sapiens, BT-20, 72 h, BT20 (breast)): 70 nM
IC50 (Homo sapiens, BXPC-3, 72 h, BXPC3 (pancreas)): 520 nM
IC50 (Homo sapiens, C-33-A, C33A (endometrial)): 60 nM
IC50 (Homo sapiens, CAKI-1, 72 h, CAKI1 (kidney)): 10 nM
IC50 (Homo sapiens, COLO 205, 72 h, COLO205 (colon)): 170 nM
IC50 (Homo sapiens, COLO-678, 72 h, COLO678 (colon)): 650 nM
IC50 (Homo sapiens, Ca-Ski, CASKI (endometrial)): 40 nM
IC50 (Homo sapiens, Caco-2, 72 h, CACO2 (colon)): 160 nM
IC50 (Homo sapiens, Calu-6, 72 h, CALU6 (lung)): 30 nM
IC50 (Homo sapiens, DLD-1, 72 h, DLD1 (colon)): 350 nM
IC50 (Homo sapiens, DU-145, 72 h, DU145 (prostate)): 20 nM
IC50 (Homo sapiens, EFO-21, 72 h, EFO21 (ovary)): 80 nM
IC50 (Homo sapiens, EJ-28, 72 h, EJ28 (bladder)): 60 nM
IC50 (Homo sapiens, Granta-519, 72 h, GRANTA-519 (hematological)): 2840 nM
IC50 (Homo sapiens, HCT-15, 72 h, HCT15 (colon)): 140 nM
IC50 (Homo sapiens, HCT-116, 72 h, HCT116 (colon)): 160 nM
IC50 (Homo sapiens, HEK293, 72 h, HEK293 (kidney)): 70 nM
IC50 (Homo sapiens, HL-60, 72 h, HL-60 (hematological)): 40 nM
IC50 (Homo sapiens, HT-29, 72 h, HT29 (colon)): 50 nM
IC50 (Homo sapiens, HT-1080, 72 h, HT1080 (connective tissue)): 2090 nM
IC50 (Homo sapiens, HeLa, HELA (endometrial)): 70 nM
IC50 (Homo sapiens, HepG2, 72 h, HEPG2 (liver)): 60 nM
IC50 (Homo sapiens, Hs-578T, HS578T (breast)): 70 nM
IC50 (Homo sapiens, IGROV-1, 72 h, IGROV1 (ovary)): 30 nM
IC50 (Homo sapiens, IMR-90, 72 h, IMR90 (lung)): 50 nM
IC50 (Homo sapiens, JEG-3, 72 h, JEG3 (placenta)): 40 nM
IC50 (Homo sapiens, JIMT-1, 72 h, JIMT1 (breast)): 20 nM
IC50 (Homo sapiens, K562, 72 h, K-562 (hematological)): 1170 nM
IC50 (Homo sapiens, Kasumi 1, 72 h, KASUMI-1 (hematological)): 20 nM
IC50 (Homo sapiens, L-363, 72 h, L-363 (hematological)): 20 nM
IC50 (Homo sapiens, LoVo, LOVO (colon)): 20 nM
IC50 (Homo sapiens, MCF7, 72 h, MCF7 (breast)): 2550 nM
IC50 (Homo sapiens, MDA-MB-231, 72 h, MDAMB231 (breast)): 1060 nM
IC50 (Homo sapiens, MDA-MB-435, 72 h, MDAMB435 (skin)): 190 nM
IC50 (Homo sapiens, MDA-MB-436, 72 h, MDAMB436 (breast)): 50 nM
IC50 (Homo sapiens, MDA-MB-468, 72 h, MDAMB468 (breast)): 90 nM
IC50 (Homo sapiens, MG-63, 72 h, MG63 (bone)): 3610 nM
IC50 (Homo sapiens, MHH-ES-1, 72 h, MHHES1 (bone)): 100 nM
IC50 (Homo sapiens, MIA PaCa-2, 72 h, MIAPACA2 (pancreas)): 7250 nM
IC50 (Homo sapiens, MINO, MINO (hematological)): 20 nM
IC50 (Homo sapiens, MV4-11, 72 h, MV4-11 (hematological)): 20 nM
IC50 (Homo sapiens, NCI-H23, 72 h, NCI-H23 (lung)): 60 nM
IC50 (Homo sapiens, NCI-H82, 72 h, NCIH82 (lung)): 70 nM
IC50 (Homo sapiens, NCI-H292, 72 h, NCIH292 (lung)): 830 nM
IC50 (Homo sapiens, NCI-H460, 72 h, NCIH460 (lung)): 40 nM
IC50 (Homo sapiens, OVCAR-3, 72 h, OVCAR3 (ovary)): 30 nM
IC50 (Homo sapiens, OVCAR-4, 72 h, OVCAR4 (ovary)): 80 nM
IC50 (Homo sapiens, PLC-PRF-5, 72 h, PLCPRF5 (liver)): 450 nM
IC50 (Homo sapiens, Panc1005, 72 h, PANC1005 (pancreas)): 60 nM
IC50 (Homo sapiens, Ramos, RAMOS (hematological)): 130 nM
IC50 (Homo sapiens, SAOS-2, 72 h, SAOS2 (bone)): 50 nM
IC50 (Homo sapiens, SF-268, 72 h, SF268 (brain)): 1880 nM
IC50 (Homo sapiens, SF-295, 72 h, SF295 (brain)): 230 nM
IC50 (Homo sapiens, SK-BR-3, 72 h, SKBR3 (breast)): 10 nM
IC50 (Homo sapiens, SK-HEP1, 72 h, SKHEP1 (liver)): 450 nM
IC50 (Homo sapiens, SK-LMS-1, 72 h, SKLMS1 (uterus)): 40 nM
IC50 (Homo sapiens, SK-MEL-5, 72 h, SKMEL5 (skin; SKMELS [sic] in Table 9E)): 580 nM
IC50 (Homo sapiens, SK-MEL-28, 72 h, SKMEL28 (skin)): 100 nM
IC50 (Homo sapiens, SK-N-AS, SKNAS (brain)): 70 nM
IC50 (Homo sapiens, SK-N-SH, SKNSH (brain)): 30 nM
IC50 (Homo sapiens, SK-OV-3, 72 h, SKOV3 (ovary)): 60 nM
IC50 (Homo sapiens, SNB-75, 72 h, SNB75 (brain)): 160 nM
IC50 (Homo sapiens, SU-DHL10, 72 h, SU-DHL-10 (hematological)): 440 nM
IC50 (Homo sapiens, SU-DHL-6, 72 h, SU-DHL-6 (hematological)): 30 nM
IC50 (Homo sapiens, SW-620, 72 h, SW620 (colon)): 50 nM
IC50 (Homo sapiens, TE-671, 72 h, TE671 (muscle)): 370 nM
IC50 (Homo sapiens, THP-1, 72 h, THP-1 (hematological)): 1770 nM
IC50 (Homo sapiens, U2OS, U20S (bone; U2OS in Table 9E)): 60 nM
IC50 (Homo sapiens, U-87 MG, U87MG (brain)): 2010 nM
IC50 (Homo sapiens, UMUC3, 72 h, UMUC3 (bladder)): 980 nM
IC50 (Homo sapiens, UO-31, 72 h, UO31 (kidney)): 40 nM
IC50 (Homo sapiens, WSU-NHL, WSU-NHL (hematological)): 30 nM
IC50 (NCI-H358M, NCIH358M (lung)): 70 nM
IC50 (PBMC, PBMC (hematological)): 320 nM
IC50 (RD-ES, RDES (bone)): 30 nM
